The values below come from patent US20240083857A1, “2-Methyl-Quinazolines” (Bayer Pharma Aktiengesellschaft, priority 2017, published 2024).

Structures are written as SMILES. Some results are limits rather than exact numbers.

The target of assay [1] is K-Ras^G12C : hSOS1 interaction (Homo sapiens, UniProt Q07889). The experiment in a line: Biochemical assay 1: K-Ras^G12C interaction assay with hSOS1 (HTRF). Particulars: read-out: Assay 1 (KRAS-SOS Interaction) activity expressed as IC50. The assay is classed as binding.
In assay [2] the target is Epidermal Growth Factor Receptor (EGFR) (Homo sapiens (Human), UniProt P00533). The experiment in a line: EGFR kinase assay (TR-FRET). The class given is biochemical. Conditions: values given in μM; read-out: EGFR kinase inhibition IC50. Put shortly:
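Read-out is the 665/620 nm HTRF ratio, from a Tb-cryptate anti-phosphotyrosine antibody and streptavidin-XL665 bound to phosphorylated biotin-peptide substrate. The enzyme, A431-derived EGFR (~3 U/ml), was given 15 min compound pre-binding at 22° C in Hepes pH 7.0 with Mg2+/Mn2+ before reaction.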

Epidermal Growth Factor Receptor (EGFR), sequence (P00533 25-1210): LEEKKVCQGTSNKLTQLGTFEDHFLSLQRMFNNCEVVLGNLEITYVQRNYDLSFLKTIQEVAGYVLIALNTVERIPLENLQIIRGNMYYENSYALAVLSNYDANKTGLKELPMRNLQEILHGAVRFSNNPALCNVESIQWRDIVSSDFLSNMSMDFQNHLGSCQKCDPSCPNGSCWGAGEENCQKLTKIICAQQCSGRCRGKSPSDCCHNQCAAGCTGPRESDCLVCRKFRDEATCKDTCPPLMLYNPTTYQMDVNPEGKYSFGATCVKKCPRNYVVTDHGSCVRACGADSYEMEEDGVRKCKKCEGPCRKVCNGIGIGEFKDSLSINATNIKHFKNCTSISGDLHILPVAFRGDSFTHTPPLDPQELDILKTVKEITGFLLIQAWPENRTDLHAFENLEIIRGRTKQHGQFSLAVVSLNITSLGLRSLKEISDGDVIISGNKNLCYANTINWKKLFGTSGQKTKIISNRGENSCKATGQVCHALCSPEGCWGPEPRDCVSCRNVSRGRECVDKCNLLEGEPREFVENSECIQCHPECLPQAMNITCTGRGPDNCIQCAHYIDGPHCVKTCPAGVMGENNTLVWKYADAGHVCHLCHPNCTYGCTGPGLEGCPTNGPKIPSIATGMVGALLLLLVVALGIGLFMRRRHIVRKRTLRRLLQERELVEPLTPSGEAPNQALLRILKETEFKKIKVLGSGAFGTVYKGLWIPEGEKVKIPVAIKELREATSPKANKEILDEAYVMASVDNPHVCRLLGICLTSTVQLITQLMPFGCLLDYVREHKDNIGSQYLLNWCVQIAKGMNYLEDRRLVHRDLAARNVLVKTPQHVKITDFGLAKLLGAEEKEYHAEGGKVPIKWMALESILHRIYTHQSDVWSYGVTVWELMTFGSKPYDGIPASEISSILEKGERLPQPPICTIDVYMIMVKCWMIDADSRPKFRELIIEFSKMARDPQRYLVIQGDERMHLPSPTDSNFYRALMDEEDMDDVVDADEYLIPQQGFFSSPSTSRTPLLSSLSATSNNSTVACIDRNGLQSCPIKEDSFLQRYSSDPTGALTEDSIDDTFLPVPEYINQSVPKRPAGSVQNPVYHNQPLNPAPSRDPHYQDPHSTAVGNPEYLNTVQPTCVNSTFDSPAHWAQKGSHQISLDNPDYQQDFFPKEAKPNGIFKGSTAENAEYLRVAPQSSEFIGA

Usually IC50 stands for the point on the concentration scale where inhibition reaches its midpoint. Turning to `CNCc1ccccc1-c1cccc([C@@H](C)Nc2nc(C)nc3cc(OC)c(OC)cc23)c1` [Example 268, 6,7-dimethoxy-2-methyl-N-[(1R)-1-{2′-[(methylamino)methyl]biphenyl-3-yl}ethyl]quinazolin-4-amine], the IC50 in assay [1] was 166 nM; in assay [2] it was more than 20 µM.

`COc1cc2nc(C)nc(NC(C)c3ccc(-c4cnc5n4CCC5)s3)c2cc1OC` (single isomer, unassigned; enantiomer 2) [Example 329, N-{1-[5-(6,7-dihydro-5H-pyrrolo[1,2-a]imidazol-3-yl)thiophen-2-yl]ethyl}-6,7-dimethoxy-2-methylquinazolin-4-amine, Enantiomer 2]: the IC50 in assay [1] is 2410 nM; in assay [2], more than 20 µM.

Take `COc1cc2nc(C)nc(NC(C)c3ccc(-c4ccccc4CN4CC(N(C)C)C4)s3)c2cc1OC` (stereo not drawn) [Example 319, N-{1-[5-(2-{[3-(dimethylamino)azetidin-1-yl]methyl}phenyl)thiophen-2-yl]ethyl}-6,7-dimethoxy-2-methylquinazolin-4-amine]: the values for the half-maximal inhibitory concentration (IC50) in assay [1] and in assay [2] were 164 nM and more than 20 µM, respectively.

For `COc1cc2nc(C)nc(NC(C)c3ccc(-c4ccc(F)cc4CNC(=O)[C@H]4CCCN4)s3)c2cc1OC` (stereo in doubt) [Example 316, N-[2-(5-{1-[(6,7-dimethoxy-2-methylquinazolin-4-yl)amino]ethyl}thiophen-2-yl)-5-fluorobenzyl]-prolinamide], the figures for the IC50 in assay [1] and in assay [2] were 271 nM and more than 20 µM, respectively.

Regarding `COc1cc2nc(C)nc(NC(C)c3ccc(-c4cc(C)n(C)c4C#N)s3)c2cc1OC` (stereo not drawn) [Example 286, 3-(5-{1-[(6,7-dimethoxy-2-methylquinazolin-4-yl)amino]ethyl}thiophen-2-yl)-1,5-dimethyl-1H-pyrrole-2-carbonitrile], the IC50 in assay [1] was 16700 nM; in assay [2] it was more than 20 µM.

In the case of `COc1cc2nc(C)nc(NC(C)c3ccc(-c4ccccc4CN4CC(F)C4)s3)c2cc1OC` (stereo not drawn) [Example 322, N-[1-(5-{2-[(3-fluoroazetidin-1-yl)methyl]phenyl}thiophen-2-yl)ethyl]-6,7-dimethoxy-2-methylquinazolin-4-amine], the IC50 in assay [1] was 408 nM; in assay [2], more than 20 µM.

In the case of `COc1cc2nc(C)nc(N[C@H](C)c3cccc(CN)c3)c2cc1OC` [Example 260, N-{(1R)-1-[3-(aminomethyl)phenyl]ethyl}-6,7-dimethoxy-2-methylquinazolin-4-amine], the IC50 in assay [1] was 4880 nM; in assay [2], more than 20 µM.

For the compound `COc1cc2nc(C)nc(N[C@H](C)c3cccc(-c4ccnn4C)c3)c2cc1OC` [Example 339, 6,7-dimethoxy-2-methyl-N-{(1R)-1-[3-(1-methyl-1H-pyrazol-5-yl)phenyl]ethyl}quinazolin-4-amine], the IC50 in assay [1] is 815 nM; in assay [2], more than 20 µM.

As for `COc1cc2nc(C)nc(NC(C)c3ccc(-c4ccccc4CN(C)CCO)s3)c2cc1OC` (stereo not drawn) [Example 298, 2-{[2-(5-{1-[(6,7-dimethoxy-2-methylquinazolin-4-yl)amino]ethyl}thiophen-2-yl)benzyl](methyl)amino}ethanol], the values for the IC50 in assay [1] and in assay [2] were 47.2 nM and more than 20 µM, respectively.

As to `COc1cc2nc(C)nc(NC(C)c3ccc(-c4ccccc4OCCN4CCCC4)s3)c2cc1OC` (stereo not drawn) [Example 325, 6,7-di methoxy-2-methyl-N-[1-(5-{2-[2-(pyrrolidin-1-yl)ethoxy]phenyl}thiophen-2-yl)ethyl]quinazolin-4-amine], the IC50 in assay [1] was 228 nM; in assay [2], more than 20 µM.

On to `COc1cc2nc(C)nc(NC(C)c3ccc(-c4ccccc4CN4CC5(CNC(=O)N5)C4)s3)c2cc1OC` (stereo not drawn) [Example 313, 2-[2-(5-{1-[(6,7-dimethoxy-2-methylquinazolin-4-yl)amino]ethyl}thiophen-2-yl)benzyl]-2,5,7-triazaspiro[3.4]octan-6-one], for which the IC50 was 167 nM in assay [1] and more than 20 µM in assay [2].

On to `COc1cc2nc(C)nc(NC(C)c3cc(-c4cnc5n4CCC5)cs3)c2cc1OC` (stereo not drawn) [Example 272, N-{1-[4-(6,7-dihydro-5H-pyrrolo[1,2-a]imidazol-3-yl)thiophen-2-yl]ethyl}-6,7-dimethoxy-2-methylquinazolin-4-amine], for which the concentration for half-maximal inhibition (IC50) in assay [1] is 1820 nM; in assay [2] it was more than 20 µM.

As for `COc1cc2nc(C)nc(NC(C)c3cccc4sc(C)cc34)c2cc1OC` (stereo not drawn) [Example 330, 6,7-dimethoxy-2-methyl-N-[1-(2-methyl-1-benzothiophen-4-yl)ethyl]quinazolin-4-amine], the IC50 in assay [1] is 227 nM; in assay [2] it was more than 20 µM.

Consider `COc1cc2nc(C)nc(NC(C)c3ccc(-c4ccccc4CN4CC(F)(F)C4)s3)c2cc1OC` (stereo not drawn) [Example 320, N-[1-(5-{2-[(3,3-difluoroazetidin-1-yl)methyl]phenyl}thiophen-2-yl)ethyl]-6,7-dimethoxy-2-methylquinazolin-4-amine], for which the IC50 in assay [1] is 2260 nM; in assay [2] it was more than 20 µM.

As to `COc1cc2nc(C)nc(N[C@H](C)c3cccc(-c4cnc5n4CCC5)c3)c2cc1OC` [Example 261, N-{(1R)-1-[3-(6,7-dihydro-5H-pyrrolo[1,2-a]imidazol-3-yl)phenyl]ethyl}-6,7-dimethoxy-2-methylquinazolin-4-amine], the IC50 is 839 nM in assay [1] and more than 20 µM in assay [2].

Take `COc1cc2nc(C)nc(NC(C)c3cccc(OC)c3OC)c2cc1OC` (stereo not drawn) [Example 21, N-[1-(2,3-dimethoxyphenyl)ethyl]-6,7-dimethoxy-2-methylquinazolin-4-amine]: the IC50 in assay [1] is 3160 nM; in assay [2], more than 20 µM.

`COc1cc2nc(C)nc(N[C@H](C)c3cccc(-c4cnn(C)c4)c3)c2cc1OC` [Example 338, 6,7-dimethoxy-2-methyl-N-{(1R)-1-[3-(1-methyl-1H-pyrazol-4-yl)phenyl]ethyl}quinazolin-4-amine]: the IC50 in assay [1] is 325 nM; in assay [2], more than 20 µM.

For the compound `COc1cc2nc(C)nc(NC(C)c3cccc4scnc34)c2cc1OC` (stereo not drawn) [Example 14, N-[1-(1,3-benzothiazol-4-yl)ethyl]-6,7-dimethoxy-2-methylquinazolin-4-amine], the values for the IC50 in assay [1] and in assay [2] were 666 nM and more than 20 µM, respectively.
